Experimental findings from patent US8269051B2, “Wickerol and method for producing the same” (The Kitasato Institute, priority 2008, dated 2012) are described below.

Data set [1] has as its system MDCK cells. As to the kind of experiment: Proliferation of MDCK cells alone (cytotoxicity). Format: cell-based, canine. The conditions noted are these: Canis lupus familiaris; MDCK cells without virus; read-out: IC50, inhibition of proliferation of the MDCK cells alone.
In data set [2] the test system is the microorganisms shown in the Table 3. As to the kind of experiment: Antimicrobial activity, overall statement. Particulars: against the microorganisms shown in the Table 3. Format: cell-based. The method, then: Antimicrobial activity of the wickerol of the present invention was as follows. Each circular filter paper (Advantec, diameter: 6 mm) was soaked with 10 μl of methanol solution of the wickerol (1 mg/ml), and then allowed to air-dry for a predetermined time to remove a solvent. After the solvent was removed, the circular filter paper was placed on each of the following test microorganism-containing agar plates, and cultured for 24 hours at 35° C. Thereafter, a diameter of a growth inhibitory circle formed around each of the circular filter papers was measured, and the results were shown in Table 3.

In data set [3] the test system is influenza virus A/PR/8/34. The conditions noted are these: ratio of MDCK cytotoxicity IC50 to antiviral IC50.
The test system of data set [4] is influenza virus A/PR/8/34. Description: microbe, parasite or virus in culture. Particulars: unidentified influenza virus, PR/8, MDCK, 72 h, read-out: IC50, inhibition of replication of influenza virus A/PR/8/34 through the infection of the MDCK cells.

≈ marks a conversion by molar mass, not a printed value.

As to `CC1CCC2CC3(C)CCC4C3C1(CCC4(C)O)C2(C)C` (stereo not shown) [wickerol], the IC50 in data set [1] was found to be 7 µg/mL (≈ 24.1 µM); in data set [4] it was 0.07 µg/mL (≈ 0.241 µM). Further, the antimicrobial activity entry in data set [2] is given as “almost no antimicrobial activity”. Moreover, in data set [3], the “inhibitory activity against the influenza virus replication relative to cytotoxicity” value is “approximately 100 times”.
